According to patent US7829548B2, “Compounds useful in the treatment of HIV” (Medivir AB, priority 2004, dated 2010):

Assays:
[1] = system: HIV-1 isolates from patient plasma samples; format: cell-based; conditions: for FC value: isolate 4 (K65R+M184V, R211S, K219E); for fold reduction in susceptibility: patient isolates 20 and 21, isolate not specified, compared to wildtype
Procedure: The susceptibility of 2′,3′-dideoxy-3′-C-hydroxymethyl-cytosine on HIV-1 isolates from patient plasma samples that bear typical TAM primer rescue mutant resistant genotypes is determined by the commercially available PhenoSense HIV assay (described in Petropoulos, C J et al., (2000) Antimicrob. Agents Chemother. 44:920-928 and performed by ViroLogics, Inc). The assay is performed by amplifying the protease (PR)-RT segment of the HIV pol gene from patient plasma and inserting the amplification products into a modified HIV-1 vector derived from an NL4-3 molecular clone.
Viral stocks are prepared by co-transfecting 293 cell cultures with recombinant viral DNA vector and an expression vector that produces the amphotropic murine leukemia virus envelope proteins. Pseudotyped virus particles are harvested from the transfected cell cultures and are used to infect fresh 293 cell cultures. The recombinant viral DNA contains a luciferase gene cassette within the HIV env gene region and the production of luciferase in target cells is dependent on the completion of one round of virus replication. Drug susceptibility is measured by adding serial concentrations of the compound of the invention and the reference compounds to the cells. Drugs that inhibit virus replication reduce luciferase signal in a dose-dependent manner, providing a quantitative measure of drug susceptibility.

[2] = system: TAM primer rescue-related resistant HIV isolates; experiment: Drug susceptibility assay in PBMC culture (p24 antigen); format: cell-based, HIV-1
Procedure: The antiviral performance of the compound of the invention against additional TAM primer rescue-related resistant HIV isolates was assayed in a PBMC culture. Isolates of HIV-1 were generated and expanded to high titer by co-cultivation of infected patient PBMC with PHA-stimulated donor PBMC (Virology Manual for ACTG HIV Laboratories). The cell-free supernatants were harvested, sequenced, and stored in aliquots at −70° C. for drug susceptibility assays.
In vitro drug susceptibility assays were performed using a modified ACTG/DOD consensus method (Virology Manual for ACTG HIV laboratories). PBMCs were pre-infected with viral stocks for 4 hrs at […] in a humidified atmosphere of 5% CO2 following 4 hr incubation. Infected cells were washed twice in media and pipetted into a microtiter plate with eight serial drug dilutions. Each well contained 100,000 pre-infected PBMC and all drug dilutions were made with cell culture medium. The drug dilutions were chosen to span the 50% inhibitory concentration (IC50) for each single drug. Control wells containing cells and virus were co-incubated on each plate. After a 7-day incubation at […] in a […] atmosphere of 5% CO2, viral growth was determined using a p24 antigen assay on supernatants (Abbott Laboratories, Chicago, USA). The percent inhibition of viral growth compared to the control well, which contained no drug, was calculated and expressed as fold changes (reductions in compounds susceptibility) compared to the control well. The reference compound AZT was run in parallel with the compound of the invention.
A cluster of representative of primer rescue-related mutant virus was selected that harbors the essential feature of primer rescue-related TAM resistant RT mutations. Strains with mutations at position M41L, D67N, K70R, L210W, T215Y/F and K219Q/E in various combinations with or without discriminative mutant M184V were used as indicated in Table 4.

[3] = Release of parent compound from prodrugs in pooled human plasma; format: in vitro ADME; conditions: 37C, spiked with 5 uM of the prodrug
Procedure: Confirmation that the prodrugs of the invention convert completely to active 2′3′-dideoxy-3′-C-hydromethylcytosine parent compound can be assessed by monitoring the appearance of the parent compound in pooled human plasma, 37C, spiked with 5 uM of the prodrug: […]

[4] = target: T1, HIV-1 RT (Human immunodeficiency virus type 1 group M subtype B, UniProt P04585); experiment: Residual free 3′-OH primer terminus after pre-incubation, second round of RT-catalysed DNA polymerization; format: biochemical; conditions: pre-incubation 10 and 30 minutes; ddCTP compared to the triphosphate of the compound of the invention
Procedure: The presence of a 3′-hydroxymethyl group in the compound of the invention should, in principle, support incorporation and elongation into the viral nucleic acid catalyzed by HIV-1 RT. A rate-limiting amount of primer-template (16S and 23S ribosomal RNA annealed with an oligo-DNA primer with the sequence of 5′-[…]-3′ (SEQ ID NO:1), custom synthesized by INNOVAGEN) was used. This was pre-incubated with 100 μM (55 times the IC50) 2′-3′-dideoxy-3′-C-hydroxymethylcytidine-triphosphate, 6.0 μM ddC-triphosphate (54 times the IC50 ddCTP), 20 μM deoxycytosine-triphosphate (20 times the Km dCTP) or the control (H2O). At the time points indicated (0, 10, 30, 60, and 120 min), the DNA polymerization process was stopped by inactivation of the RT at 70° C. for 2 min during the first round of DNA polymerization (FIG. 9).
The residual amount of primer-template directly reflects the availability of free 3′-OH primer terminus present after the first round of reaction. […] The availability of free 3′-OH at the primer terminus in the residual amount of primer-template that supported further DNA polymerization was measured and expressed as a function of pre-incubation time (FIG. 10).

[5] = target: T1, HIV-1 RT; experiment: DNA chain termination assay (M13mp18 template, gel autoradiography); format: biochemical
Procedure: Two deoxycytosine analogues, the conventional NRTI ddC lacking a 3′-hydroxyl group function and the compound of the invention, were subjected to a DNA chain termination assay in which DNA prolongation was conducted with M13mp18 single strand DNA template pre-annealed to an oligo-DNA primer (the forward primer sequence of 5′-[…]-3′ (SEQ ID NO:2) was purchased from Amersham UK. M13mp18 single strand […] was annealed to this oligo-DNA primer giving a final concentration of 1 mg/ml in a buffer containing 10 mM Tris-HCl, pH 7.9 and 100 mM NaCl, and was stored in aliquots at −20° C. DNA polymerization was conducted using this annealed template/primer, HIV-1 RT and natural dNTPs in a reaction incubated at 37° C. for 25 min. The reaction was stopped by the addition of Stop solution containing 95% Formamide, 20 mM EDTA, 0.05% Bromophenol Blue and 0.05% Xylene Cyanol FF (purchased from USB, United States Biochemical via Amersham UK). After denaturing the DNA products, the elongated DNA fragment was electrophoresed on an 8.0% polyacrylamide gel and visualized using autoradiography.
The assay included a negative control (the native dNTP), dual positive ddCTP controls (ddCTP, 8 uM from Sigma Chemical, St. Louis, Miss., USA and ddCTP obtained from a USB sequence kit United States Biochemical via Amersham UK). Various molecule ratios of the triphosphate of the compound of the invention and the natural dNTP were used. After the reaction was conducted as described above, the denatured DNA fragments from each individual reaction was loaded onto an 8.0% polyacrylamide gel in the following order: • 1—Negative control • 2—1st Positive control 8 μM ddCTP (purchased from Sigma) • 3—20 μM inventionTP in 200 μM dNTP • 4—30 μM inventionTP in 300 μM dNTP • 5—40 μM invention TP in 400 μM dNTP • 6—50 μM invention TP in 500 μM dNTP • 7—20 μM invention TP in 80 μM dNTP • 8—40 μM invention TP in 80 μM dNTP • 9—Empty space (no loading) • 10—2nd positive control ddCTP (from USB sequence kit)

Structure (SMILES)	FC value [1]	fold reduction in susceptibility [1]	Concentration of parent uM 5 min [3] [µM]	Concentration of parent uM 20 min [3] [µM]	Concentration of parent uM O min [3] [µM]	further results
Nc1nc(NC2CC2)c2ncn([C@H]3C=C[C@@H](CO)C3)c2n1 [ABC, abacavir]	> 9.0	lost potency				
Cc1cn([C@H]2C[C@H](N=[N+]=[N-])[C@@H](CO)O2)c(=O)[nH]c1=O [AZT, zidovudine]	1.11					FC value ([2]; isolate 7086 (T215V)): 3.0; FC value ([2]; primer rescue mutant isolates of Table 4): a couple of hundred folds
Nc1ccn([C@@H]2CS[C@H](CO)O2)c(=O)n1 [Compound 3TC, lamivudine]	> 200					
CC(C)[C@H](N)C(=O)OCC1CC(n2ccc(N)nc2=O)OC1CO (stereo partly drawn) [Compound 5, 2′-3′-dideoxy-3-C-(L-valyl-oxymethyl)cytosine]			0.4	1.0	0	
CC(C)[C@H](N)C(=O)OCC1CC(n2ccc(N)nc2=O)OC1COC(=O)[C@@H](N)C(C)C (stereo partly drawn) [Compound 8, 5′-O-L-valyl-2′,3′-dideoxy-3′-C-L-valyloxymethylcytosine]			0.2	0.3	0.1	
CC(C)[C@H](N)C(=O)O[C@@H](C)C(=O)OCC1CC(n2ccc(N)nc2=O)OC1CO (stereo partly drawn) [Compound 14, 2′,3′-dideoxy-3′-C-[2-S-(L-valyloxy)-propionyl]-oxymethylcytosine]			4.5	4.6	4.6	
CCCCC(=O)OCC1CC(n2ccc(N)nc2=O)OC1COC(=O)CCCC (centres unmarked) [Compound 22, 5′-O-pentanoyl-2′-3′-dideoxy-3-C-pentanoyl-oxymethylcytosine]			4.0	4.5	4.2	
CCCCC(=O)OC[C@H]1C[C@H](n2ccc(N)nc2=O)O[C@@H]1CO [Compound 24, 2′,3′-dideoxy-3′-C-pentanoyl-oxymethylcytosine]			4.2	4.4	3.9	
Nc1nc(=O)n([C@@H]2CS[C@H](CO)O2)cc1F [FTC, emtricitabine]	> 40	lost potency				
C[C@H](Cn1cnc2c(N)ncnc21)OCP(=O)(O)O [TNF, tenofovir]		lost potency				
Cc1cn([C@H]2C=C[C@@H](CO)O2)c(=O)[nH]c1=O [d4T, stavudine]	0.71	lost potency				
Nc1ccn([C@H]2CC[C@@H](COP(=O)(O)OP(=O)(O)OP(=O)(O)O)O2)c(=O)n1 [ddCTP, ddC-triphosphate, reference compound]						residual 3-OH primer terminus left to support further DNA prolongation [4]: less than half; chain termination pattern ([5]; lane 2, 1st positive control, 8 μM): led to chain termination at the anticipated 2′3′-deoxydeoxycytosine sites; chain termination pattern ([5]; lane 10, 2nd positive control (USB sequence kit)): led to chain termination at anticipated 2′3′-deoxydeoxycytosine sites
Nc1ccn([C@H]2C[C@H](CO)[C@@H](COP(=O)(O)OP(=O)(O)OP(=O)(O)O)O2)c(=O)n1 [inventionTP, 2′-3′-dideoxy-3′-C-hydroxymethylcytidine-triphosphate]						chain termination pattern ([5]; lane 3, 20 μM TP / 200 μM dNTP): led to chain termination at the site after/behind 2′3′-deoxydeoxycytosine site; chain termination pattern ([5]; lane 4, 30 μM TP / 300 μM dNTP): led to chain termination at the site after 2′3′-deoxydeoxycytosine site; chain termination pattern ([5]; lane 5, 40 μM TP / 400 μM dNTP): lead to chain termination at the site after 2′3′-deoxydeoxycytosine site; chain termination pattern ([5]; lane 6, 50 μM TP / 500 μM dNTP): No specific pause (chain termination pattern) was found; chain termination pattern ([5]; lane 7, 20 μM TP / 80 μM dNTP): led to a more pronounced chain termination effect at the site after the 2′3′-deoxydeoxycytosine site; chain termination pattern ([5]; lane 8, 40 μM TP / 80 μM dNTP): led to a more pronounced chain termination effect at the site after the 2′3′-deoxydeoxycytosine site
